Reference: ChEMBL document CHEMBL5518211, “Design, Synthesis, and Antitumor Activity Evaluation of Novel VISTA Small Molecule Inhibitors” (J Med Chem, 2024)

Assays:
[1] = target: T1, V-type immunoglobulin domain-containing suppressor of T-cell activation (Mus musculus, UniProt Q9D659); experiment: Binding affinity to mouse VISTA ECD assessed as dissociation constant by MST analysis
T1 sequence (Q9D659 whole entry): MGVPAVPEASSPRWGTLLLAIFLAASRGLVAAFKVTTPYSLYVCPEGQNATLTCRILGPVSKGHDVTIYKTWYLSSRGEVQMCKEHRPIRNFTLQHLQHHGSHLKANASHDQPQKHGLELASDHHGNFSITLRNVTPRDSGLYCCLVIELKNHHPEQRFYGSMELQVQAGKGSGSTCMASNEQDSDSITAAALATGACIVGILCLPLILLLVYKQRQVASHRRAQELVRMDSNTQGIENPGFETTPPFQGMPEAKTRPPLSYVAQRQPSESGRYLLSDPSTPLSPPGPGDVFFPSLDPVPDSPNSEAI

[2] = target: T2, V-type immunoglobulin domain-containing suppressor of T-cell activation (Homo sapiens, UniProt Q9H7M9)
T2 sequence (Q9H7M9 whole entry): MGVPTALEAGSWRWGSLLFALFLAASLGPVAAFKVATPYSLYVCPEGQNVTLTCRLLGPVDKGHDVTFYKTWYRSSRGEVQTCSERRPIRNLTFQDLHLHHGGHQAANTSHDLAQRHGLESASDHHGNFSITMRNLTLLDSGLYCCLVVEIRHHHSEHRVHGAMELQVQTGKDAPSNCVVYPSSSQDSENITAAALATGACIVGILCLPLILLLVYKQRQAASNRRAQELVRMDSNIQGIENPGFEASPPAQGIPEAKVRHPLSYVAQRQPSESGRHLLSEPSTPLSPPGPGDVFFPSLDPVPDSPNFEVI
Description: Binding affinity to human VISTA assessed as dissociation constant by MST analysis

Row | Compound | Kd [1] [nM] | Kd [2] [µM]
1 | Cc1ccc2nc(Nc3nc(O)cc(CSc4nnc(C)s4)n3)nc(C)c2c1 | 647 | –
2 | COC1C=C(CNCCNC(C)=O)N=C(Nc2cccc(O)c2)N1 (configuration not stated) | – | 4.73
